Test results: PMC7525318, “Identification of Six Flavonoids as Novel Cellular Antioxidants and Their Structure-Activity Relationship” (Oxidative Medicine and Cellular Longevity, 2020)

What was measured:
[1] = DPPH radical scavenging activity; settings: 0.1 mM DPPH in methanol, 37°C, 30 min
Procedure: This assay was conducted as previously described by Wen et al. with some modifications. DPPH was freshly prepared in methanol at a concentration of 0.1 mM. The solution (20 μL) containing the tested compounds with different concentrations was added into the DPPH solution (180 μL) in the 96-well plates. […] The IC50 value was calculated on the scavenging activity against DPPH radical.

[2] = tested on: HepG2 cells; test: Cellular antioxidant activity (CAA) assay; type: cell-based; settings: DCFH-DA 25 μM, ABAP 600 μM
Procedure: The CAA assay was tested as described previously. 6 × 10^4 cells/well of HepG2 cells were seeded at a 96-well microplate with 100 μL of growth medium/well. […] Then, the cells were washed with PBS and treated with 100 μL of 600 μM ABAP (dissolved in HBSS), and the 96-well microplate was immediately placed into an Infinite SpectraMax i3x Multi-Mode Detection plate-reader at 37°C. […]

[3] = Oxygen radical antioxidant capacity (ORAC) assay; settings: Trolox equivalents; AAPH, fluorescein
Procedure: The ORAC assay was evaluated as previously described by Cao et al. with some modifications. 50 μL of samples or Trolox with different concentrations and the fluorescein solution was added to a 96-well microplate, which was incubated at 37°C for 10 min. […] The ORAC values were calculated by the regression equation between the Trolox concentration and the net area under the curve (expressed as μmol Trolox eq/μmol sample).

Row | Molecule | IC50 [1] [µM] | EC50 ([2]; Homo sapiens) [µM] | ORAC values [3] [μmol TE/μmol] | EC50 [2] [µM]
1 | COc1cc(-c2oc3cc(O)cc(O)c3c(=O)c2O)ccc1O [compound 1, Isorhamnetin] | 126 ± 4.26 | 23.3 ± 1.38 | – | –
2 | COc1ccc(-c2oc3cc(O)cc(O)c3c(=O)c2O)cc1 [compound 3, Kaempferide] | > 200 | > 30 | – | –
3 | O=c1c(O)c(-c2ccc(O)cc2O)oc2cc(O)cc(O)c12 [compound 4, Morin] | > 200 | 15.2 ± 0.32 | 5.98 ± 0.01 | –
4 | O=c1c(O)c(-c2ccc(O)cc2)oc2cc(O)cc(O)c12 [compound 6, Kaempferol] | > 200 | 11 ± 0.25 | 4.17 ± 0.06 | –
5 | O=c1c(O)c(-c2ccc(O)c(O)c2)oc2cc(O)cc(O)c12 [compound 7, Quercetin, reference compound] | 21.5 ± 1.9 | 8.77 ± 0.09 | 5.52 ± 0.04 | –
6 | O=c1c(O[C@@H]2O[C@H](CO)[C@H](O)[C@H](O)[C@H]2O)c(-c2ccc(O)cc2)oc2cc(O)cc(O)c12 [compound 11, Trifolin] | 45.1 ± 2.12 | > 200 | 2.06 ± 0.01 | –
7 | O=c1c(O)c(-c2ccc(OC3O[C@H](CO)[C@@H](O)[C@H](O)[C@H]3O)cc2)oc2cc(O)cc(O)c12 (stereo partly shown) [compound 12, Kaempferol-4′-O-glucopyranoside] | > 200 | > 200 | – | –
8 | C[C@@H]1O[C@@H](OC[C@H]2O[C@@H](Oc3c(-c4ccc(O)c(O)c4)oc4cc(O)cc(O)c4c3=O)[C@H](O)[C@@H](O)[C@@H]2O)[C@H](O)[C@H](O)[C@H]1O [compound 16, Rutin] | 70 ± 1.44 | > 200 | – | –
9 | O=c1c(O)c(-c2ccc(O[C@@H]3O[C@H](CO)[C@@H](O)[C@H](O)[C@H]3O)c(O)c2)oc2cc(O)cc(O)c12 [compound 17, Spiraeoside] | > 200 | > 200 | – | –
10 | O=c1c(O)c(-c2cc(O)c(O)c(O)c2)oc2cc(O)cc(O)c12 [compound 18, Myricetin] | 21.3 ± 1.33 | 26.7 ± 1.04 | 6.64 ± 0.03 | –
11 | COc1ccc(-c2cc(=O)c3c(OC)c(OC)c(OC)c(OC)c3o2)cc1 [compound 19, Tangeretin] | > 200 | > 200 | – | –
12 | O=c1cc(-c2ccccc2)oc2cc(O)cc(O)c12 [compound 20, Chrysin] | > 200 | > 200 | – | –
13 | O=c1cc(-c2ccccc2)oc2cc(O)c(O)c(O)c12 [compound 21, Baicalein] | > 200 | 42.5 ± 0.24 | – | –
14 | O=c1cc(-c2ccc(O)cc2)oc2cc(O)cc(O)c12 [compound 22, Apigenin] | > 200 | > 200 | 4.27 ± 0.02 | –
15 | O=c1cc(-c2ccc(O)c(O)c2)oc2cc(O)cc(O)c12 [compound 23, Luteolin] | 73.2 ± 0.75 | 18.6 ± 0.61 | 4.27 ± 0.02 | –
16 | O=c1c(OC2OC(CO)C(O)C(O)C2O)c(-c2cc(O)c(O)c(O)c2)oc2cc(O)cc(O)c12 (stereo not shown) [compound 25, Myricetin-3-O-galactoside] | 82.4 ± 2.88 | > 200 | – | –
17 | O=c1c(OC2OC(CO)C(O)C(O)C2O)c(-c2ccc(O)c(O)c2)oc2cc(O)cc(O)c12 (stereo not shown) [compound 26, Quercetin-3-O-galactoside] | 53.3 | 45.9 | 4.05 ± 0.15 | –
18 | C[C@@H]1O[C@@H](Oc2c(-c3ccc(O)c(O)c3)oc3cc(O)cc(O)c3c2=O)[C@H](O)[C@H](O)[C@H]1O [compound 28, Quercitrin] | 68.3 ± 1.37 | > 200 | – | –
19 | O=c1c(O[C@@H]2O[C@H](CO)[C@@H](O)[C@H](O)[C@H]2O)c(-c2ccc(O)c(O)c2)oc2cc(O)cc(O)c12 [compound 29, Isoquercitrin] | > 200 | > 200 | – | –
20 | O=c1cc(-c2ccc(O)cc2)oc2c([C@@H]3O[C@H](CO)[C@@H](O)[C@H](O)[C@H]3O)c(O)cc(O)c12 [compound 30, Vitexin] | > 200 | > 200 | 6.80 ± 0.42 | –
21 | O=c1cc(-c2ccc(O)c(O)c2)oc2c([C@@H]3O[C@H](CO)[C@@H](O)[C@H](O)[C@H]3O)c(O)cc(O)c12 [compound 31, Orientin] | > 200 | > 200 | – | –

Row | Molecule | IC50 [1] [µM] | EC50 ([2]; Homo sapiens) [µM] | ORAC values [3] [μmol TE/μmol] | EC50 [2] [µM]
22 | O=c1cc(-c2ccc(O)cc2)oc2cc(O)c([C@@H]3O[C@H](CO)[C@@H](O)[C@H](O)[C@H]3O)c(O)c12 [compound 33, Isovitexin] | > 200 | > 200 | – | –
23 | O=c1c(O)c(-c2ccccc2)oc2cc(O)cc(O)c12 [compound 34, Galangin] | > 200 | 31.2 ± 0.86 | – | –
24 | O=c1c(O)c(-c2ccc(O)c(O)c2)oc2cc(O)ccc12 [compound 35, Fisetin] | 25.2 ± 0.62 | > 200 | 5.36 ± 0.21 | –
25 | COc1ccc(-c2cc(=O)c3c(O)cc(O)cc3o2)cc1O [compound 36, Diosmetin] | > 200 | > 200 | 5.02 ± 0.14 | –
26 | COc1cc(O)c2c(=O)cc(-c3ccc(O)cc3)oc2c1 [compound 37, Genkwanin] | > 200 | > 200 | – | –
27 | O=C1c2c(O)cc(O)cc2O[C@H](c2cc(O)c(O)c(O)c2)[C@H]1O [compound 38, Dihydromyricetin] | > 200 | > 200 | 5.25 ± 0.02 | –
28 | O=C1c2c(O)cc(O)cc2OC(c2ccc(O)c(O)c2)C1O (stereo not shown) [compound 39, Taxifolin] | 59.6 ± 3.12 | > 200 | 5.26 ± 0.04 | –
29 | O=C1c2c(O)cc(O)cc2O[C@H](c2ccc(O)cc2O)[C@H]1O [compound 40, Dihydromorin] | > 200 | > 200 | 5.29 ± 0.05 | –
30 | COc1ccc([C@@H]2CC(=O)c3c(O)cc(O[C@@H]4O[C@H](CO)[C@@H](O)[C@H](O)[C@H]4O[C@@H]4O[C@@H](C)[C@H](O)[C@@H](O)[C@H]4O)cc3O2)cc1O [compound 41, Neohesperidin] | > 200 | – | – | > 200
31 | C[C@@H]1O[C@@H](OC[C@H]2O[C@@H](Oc3cc(O)c4c(c3)O[C@H](c3ccc(O)cc3)CC4=O)[C@H](O)[C@@H](O)[C@@H]2O)[C@H](O)[C@H](O)[C@H]1O [compound 42, Narirutin] | > 200 | > 200 | – | –
32 | COc1ccc([C@@H]2CC(=O)c3c(O)cc(O)cc3O2)cc1O [compound 43, Hesperetin] | > 200 | > 200 | – | –
33 | COc1ccc([C@@H]2CC(=O)c3c(O)cc(O[C@@H]4O[C@H](CO[C@@H]5O[C@@H](C)[C@H](O)[C@@H](O)[C@H]5O)[C@@H](O)[C@H](O)[C@H]4O)cc3O2)cc1O [compound 44, Hesperidin] | > 200 | – | 6.52 ± 0.15 | > 200
34 | O=C1C[C@@H](c2ccc(O)cc2)Oc2cc(O)cc(O)c21 [compound 45, Naringenin] | > 200 | > 200 | 4.62 ± 0.13 | –
35 | O=C1C[C@@H](c2ccc(O)cc2)Oc2cc(O)ccc21 [compound 46, Liquiritigenin] | > 200 | > 200 | – | –
36 | O=C(CCc1ccc(O)cc1)c1c(O)cc(O)cc1O [compound 48, Phloretin] | > 200 | 30.96 ± 0.2 | – | –
37 | O=C(/C=C/c1ccc(O)cc1)c1ccc(O)cc1O [compound 50, Isoliquiritigenin] | – | > 200 | – | –
38 | OCC1OC(Oc2cc3c(OC4OC(CO)C(O)C(O)C4O)cc(O)cc3[o+]c2-c2ccc(O)c(O)c2)C(O)C(O)C1O (stereo not shown) [compound 53, Cyanin chloride] | > 200 | > 200 | – | –
39 | OCC1OC(Oc2cc3c(OC4OC(CO)C(O)C(O)C4O)cc(O)cc3[o+]c2-c2ccc(O)cc2)C(O)C(O)C1O (stereo not shown) [compound 55, Pelargonin chloride] | > 200 | > 200 | – | –
40 | Myricitrin [compound 9] | 50.9 ± 2.14 | – | – | > 200
41 | Quercetin-3-O-rhamnoside [compound 27] | 47.7 | – | – | 22.8
